Laboratory results taken from ChEMBL document CHEMBL1201862, “PubChem BioAssay data set” (2004).
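Results reflect a 48-hour exposure of cells in 96-well plates to compound at five concentrations. GI50: concentration for 50% inhibition of growth.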 Activity calls are given as the source filed them. No stated cut-off is given here; in the data, active = GI50 up to about 1.1 µM and inactive = higher.

Columns and labels:
Test in all cases: NCI tumour cell line growth inhibition, 48 h
OVCAR-3 = system: OVCAR-3
HL-60 = system: HL-60
TK-10 = system: TK-10
MOLT-4 = system: MOLT-4
CAKI-1 = system: CAKI-1
NCI-H226 = system: NCI-H226
PC-3 = system: PC-3
RPMI-8226 = system: RPMI-8226
786-0 = system: 786-0
SK-MEL-5 = system: SK-MEL-5
K562 = system: K562
HOP-92 = system: HOP-92
Malme-3M = system: Malme-3M
SNB-75 = system: SNB-75
SF-539 = system: SF-539
NCI-H23 = system: NCI-H23
RXF 393 = system: RXF 393
EKVX = system: EKVX
HT-29 = system: HT-29
MCF7 = system: MCF7

SMILES | GI50 (OVCAR-3) | GI50 (HL-60) | GI50 (TK-10) | GI50 (MOLT-4) | GI50 (CAKI-1) | GI50 (NCI-H226) | GI50 (PC-3) | GI50 (RPMI-8226) | GI50 (786-0) | GI50 (SK-MEL-5) | GI50 (K562) | GI50 (HOP-92) | GI50 (Malme-3M) | GI50 (SNB-75) | GI50 (SF-539) | GI50 (NCI-H23) | GI50 (RXF 393) | GI50 (EKVX) | GI50 (HT-29) | GI50 (MCF7)
CC(C)(Oc1ccc(-c2cccc3ccccc23)cc1)C(=O)O | > 100 µM (inactive) | 3.86 µM (inactive) | > 100 µM (inactive) | > 100 µM (inactive) | > 100 µM (inactive) | > 100 µM (inactive) | > 100 µM (inactive) | > 100 µM (inactive) | > 100 µM (inactive) | 99.5 µM (inactive) | 1.3 µM (inactive) | > 100 µM (inactive) | > 100 µM (inactive) | > 100 µM (inactive) | > 100 µM (inactive) | > 100 µM (inactive) | > 100 µM (inactive) | > 100 µM (inactive) | > 100 µM (inactive) | > 100 µM (inactive)
CC(C)OC(=O)c1ccc(NCc2cc(O)ccc2O)cc1 | 1.47 µM (inactive) | 0.462 µM (active) | 4.53 µM (inactive) | 1.39 µM (inactive) | 1.28 µM (inactive) | 3.21 µM (inactive) | 1.8 µM (inactive) | 0.483 µM (active) | 2.84 µM (inactive) | 3.29 µM (inactive) | 0.946 µM (active) | 1.95 µM (inactive) | 2.16 µM (inactive) | 4.61 µM (inactive) | 1.53 µM (inactive) | 4.36 µM (inactive) | 1.32 µM (inactive) | 3.82 µM (inactive) | 13.7 µM (inactive) | 1.66 µM (inactive)
c1ccc(CSc2nc(N3CCOCC3)c3cn[nH]c3n2)cc1 | 27.7 µM (inactive) | 36.6 µM (inactive) | 18.5 µM (inactive) | 22.2 µM (inactive) | 9.18 µM (inactive) | 17 µM (inactive) | 13.4 µM (inactive) | 7.85 µM (inactive) | 37.7 µM (inactive) | 15.8 µM (inactive) | 16.2 µM (inactive) | 0.237 µM (active) | 14.1 µM (inactive) | 30.4 µM (inactive) | 21 µM (inactive) | 49.2 µM (inactive) | 6.1 µM (inactive) | 16.4 µM (inactive) | 30.8 µM (inactive) | 23.1 µM (inactive)
CCOC(=O)C(=O)C(/C(=N/N(C)C)C(=O)Nc1ccc(C)cc1C)c1nc2ccccc2nc1O (centres undefined) | > 100 µM (inactive) | > 100 µM (inactive) | > 100 µM (inactive) | > 100 µM (inactive) | > 100 µM (inactive) | > 100 µM (inactive) | > 100 µM (inactive) | > 100 µM (inactive) | > 100 µM (inactive) | > 100 µM (inactive) | > 100 µM (inactive) | > 100 µM (inactive) | > 100 µM (inactive) | > 100 µM (inactive) | > 100 µM (inactive) | > 100 µM (inactive) | > 100 µM (inactive) | 49.1 µM (inactive) | > 100 µM (inactive) | > 100 µM (inactive)
CCOC(=O)c1nc2cc(F)c(N3CCOCC3)cc2[nH]c1=O | > 100 µM (inactive) | 47.5 µM (inactive) | > 100 µM (inactive) | > 100 µM (inactive) | > 100 µM (inactive) | 90.8 µM (inactive) | > 100 µM (inactive) | > 100 µM (inactive) | > 100 µM (inactive) | > 100 µM (inactive) | > 100 µM (inactive) | > 100 µM (inactive) | > 100 µM (inactive) | > 100 µM (inactive) | > 100 µM (inactive) | > 100 µM (inactive) | > 100 µM (inactive) | 13.9 µM (inactive) | > 100 µM (inactive) | > 100 µM (inactive)
CCOC(=O)C(=CNc1ccc(N(C2=NCC(C)S2)c2ccc(F)c(Cl)c2)cc1)C(=O)OCC (centres undefined) | 20.9 µM (inactive) | 24.7 µM (inactive) | 21.8 µM (inactive) | 19.1 µM (inactive) | 39.2 µM (inactive) | 18.1 µM (inactive) | 22.4 µM (inactive) | 21.3 µM (inactive) | 16.2 µM (inactive) | 18.7 µM (inactive) | 44.1 µM (inactive) | 18.1 µM (inactive) | 20.8 µM (inactive) | 20.4 µM (inactive) | 25.6 µM (inactive) | 17.5 µM (inactive) | 6.05 µM (inactive) | 19.5 µM (inactive) | 18.1 µM (inactive) | 12.8 µM (inactive)
CS(=O)(=O)OCCN(CCOS(C)(=O)=O)c1ccc(/C=N/c2cccc(Cl)c2)cc1 | 12.1 µM (inactive) | 2.45 µM (inactive) | 2.19 µM (inactive) | 0.286 µM (active) | 0.239 µM (active) | 2.06 µM (inactive) | 24.5 µM (inactive) | 3.85 µM (inactive) | 0.813 µM (active) | 6.43 µM (inactive) | 23.5 µM (inactive) | 23.8 µM (inactive) | 12.4 µM (inactive) | 2.11 µM (inactive) | 3.68 µM (inactive) | 1.66 µM (inactive) | 2.78 µM (inactive) | 7.36 µM (inactive) | 2.69 µM (inactive) | 10 µM (inactive)
COc1ccc(C(O)CNC(=O)c2ccccc2)cc1 (centres undefined) | > 100 µM (inactive) | > 100 µM (inactive) | > 100 µM (inactive) | > 100 µM (inactive) | > 100 µM (inactive) | > 100 µM (inactive) | > 100 µM (inactive) | > 100 µM (inactive) | > 100 µM (inactive) | > 100 µM (inactive) | > 100 µM (inactive) | > 100 µM (inactive) | > 100 µM (inactive) | > 100 µM (inactive) | > 100 µM (inactive) | > 100 µM (inactive) | > 100 µM (inactive) | > 100 µM (inactive) | > 100 µM (inactive) | > 100 µM (inactive)
COc1ccc(-c2cc(-c3ccccc3)c3c(n2)-c2ccccc2NC(=O)C3)cc1 | 30.1 µM (inactive) | > 100 µM (inactive) | 41.8 µM (inactive) | – | 40.9 µM (inactive) | 58.2 µM (inactive) | 28.3 µM (inactive) | > 100 µM (inactive) | 29 µM (inactive) | 23.8 µM (inactive) | 1.47 µM (inactive) | 27 µM (inactive) | 17.4 µM (inactive) | 1.19 µM (inactive) | > 100 µM (inactive) | > 100 µM (inactive) | 30.2 µM (inactive) | 40.3 µM (inactive) | 12.1 µM (inactive) | 39.4 µM (inactive)
c1ccc(C2=NNC3c4ccccc4-c4ccccc4N3C2)cc1 (centres undefined) | 37.5 µM (inactive) | 2.08 µM (inactive) | 33.7 µM (inactive) | 20 µM (inactive) | 43 µM (inactive) | 26.9 µM (inactive) | 23.7 µM (inactive) | 19 µM (inactive) | 50 µM (inactive) | 15.9 µM (inactive) | 23.9 µM (inactive) | 52.5 µM (inactive) | 30.3 µM (inactive) | 21.9 µM (inactive) | 22.4 µM (inactive) | 26.1 µM (inactive) | 40 µM (inactive) | 35.5 µM (inactive) | 39.5 µM (inactive) | 14.7 µM (inactive)
Cc1nc(C)c(N2CCN([N+](=O)[O-])CC2)c(O)n1 | > 100 µM (inactive) | > 100 µM (inactive) | > 100 µM (inactive) | > 100 µM (inactive) | > 100 µM (inactive) | > 100 µM (inactive) | > 100 µM (inactive) | > 100 µM (inactive) | > 100 µM (inactive) | > 100 µM (inactive) | > 100 µM (inactive) | > 100 µM (inactive) | > 100 µM (inactive) | < 0.01 µM (active) | > 100 µM (inactive) | > 100 µM (inactive) | > 100 µM (inactive) | > 100 µM (inactive) | > 100 µM (inactive) | > 100 µM (inactive)
O=C1/C(=C/C=C/c2ccccc2)N=C(c2ccccc2)N1c1ccc(S(=O)(=O)Nc2nccs2)cc1 | 21.1 µM (inactive) | 46.1 µM (inactive) | 30.8 µM (inactive) | 50.1 µM (inactive) | 65.9 µM (inactive) | 20 µM (inactive) | 36.4 µM (inactive) | 21.9 µM (inactive) | 34.8 µM (inactive) | 20.6 µM (inactive) | 40.2 µM (inactive) | 45.9 µM (inactive) | 32.7 µM (inactive) | 45.1 µM (inactive) | 20.8 µM (inactive) | 21.3 µM (inactive) | 13.2 µM (inactive) | 26.3 µM (inactive) | 23 µM (inactive) | 18.7 µM (inactive)
